Data from patent publication US20230054407A1, “OPTICAL BIOPSY STAIN PANELS AND METHODS OF USE” (ARIZONA BOARD OF REGENTS ON BEHALF OF THE UNIVERSITY OF …, priority 2020, published 2023).

Tests used:
[1] = In vitro fluorescence emission spectra and compatibility of nucleic acid and protein/cytoplasm dyes; assay type: physicochemical; conditions: for source of the resultant fluorescence emission signal of the mixture: Mitoxantrone mixed with Phloxine B at 100:1 molar ratio
Protocol: Additional incompatibility results from overlapping of the component peak emissions.
Daunorubicin (1 μM), Fluorescein (1 nM) and the combination of the two were excited at 375 nm, with resultant fluorescence emission.
With 405 nm excitation, Proflavine at 0.25 μM, Rose Bengal at 10 μM, and the combination result in roughly the same order of magnitude peaks resulting from their respective fluorescence.
FIGS. 8A-8F show emission spectra of various drug dye candidates. FIGS. 8A-8D show Mitoxantrone as a Hematoxylin-alternative candidate at 10 μM, with Phloxine B at 0.1 μM as an Eosin-alternative candidate drug-dye, and a combination of the two excited at different wavelengths: (FIG. 8A) 375 nm, (FIG. 8B) 405 nm, (FIG. 80) 455 nm, and (FIG. 8D) 488 nm. […] Additionally, there was overlap of emission spectra (FIG. 9) and the combination of certain DNA and protein dyes decreased the emission intensity relative to the same concentration of the component dye alone (FIG. 9 and FIG. 10).
The stain panels listed below use a combination of nucleus dyes and protein/cytoplasm dyes that have been optimized for their compatibility.

[2] = tested on: bovine lung tissue; experiment: Topical drug-dye staining of ex vivo bovine lung tissue imaged with confocal microscopy; conditions: for localization of drug-dye: ex vivo bovine lung tissue, qualitatively at the concentrations of FIGS. 2A-2D; for staining pattern: single dye applied topically to ex vivo bovine lung tissue, confocal microscopy
Text: Image field is 635.5 μm tall×wide. Inset is the structure of Proflavine.
Image field is 635.5 μm tall×wide. […]
Imaging was with confocal microscopy, with a bovine lung sample thickness of 10 μm, and an image field of 635.5 μm^2.
Imaging was with confocal microscopy settings at 488 nm excitation after topical application to the bovine lung specimen. Image field is 635.5 μm^2 at 10 μm thickness.
The dyes were pipetted in situ upon bovine tissue ex vivo and examined under confocal microscopy with a 488 nm laser with 10 μm optical thickness and imaged fields being 635.5 μm^2.
Referring to FIG. 1, 50 μl at 20 μM of Proflavine was topically applied directly to ex vivo bovine lung tissue in situ and imaged immediately with confocal microscopy. […] Likewise, Fluorescein, Phenol Red, Phloxine B, and Rose Bengal were each added to ex vivo bovine lung tissue and imaged under confocal microscopy (see FIGS. 2A-2I). […] This combination was then added topically to bovine lung tissue and imaged using confocal microscopy (FIG. 3). […]

[3] = tested on: human breast cancer metastasized to the lung; experiment: Staining of human breast cancer metastasized to the lung with Rose Bengal and Proflavine; conditions: Rose Bengal and Proflavine combined, concentrations similar to FIG. 6A

Row | Compound | Approximate peak fluorescence [1] | staining pattern [2] | other results
1 | Nc1c(/N=N/c2ccc(-c3ccc(/N=N/c4cc(S(=O)(=O)O)c5ccccc5c4N)cc3)cc2)cc(S(=O)(=O)O)c2ccccc12 [Congo Red] | ~425 nm | – | –
2 | COc1cccc2c1C(=O)c1c(O)c3c(c(O)c1C2=O)C[C@@](O)(C(C)=O)C[C@@H]3O[C@H]1C[C@H](N)[C@H](O)[C@H](C)O1 [Daunorubicin] | – | – | change of fluorescence emission peak with increasing concentrations of Phloxine B ([1]; 488 nm excitation, peak around 590 nm): progressive decrease of fluorescence emission
3 | CN(C)c1ccc2nc3ccc(=[N+](C)C)cc-3sc2c1 [Methylene Blue] | ~695 nm | – | –
4 | O=C1c2c(O)ccc(O)c2C(=O)c2c(NCCNCCO)ccc(NCCNCCO)c21 [Mitoxantrone] | ~685 nm | – | concentration dependence of fluorescence ([1]; 455 nm excitation): concentration-dependent fluorescence; source of the resultant fluorescence emission signal of the mixture ([1]; 375 nm excitation): primarily Mitoxantrone
5 | O=C([O-])c1c(Cl)c(Cl)c(Cl)c(Cl)c1-c1c2cc(Br)c(=O)c(Br)c-2oc2c(Br)c([O-])c(Br)cc12.[Na+].[Na+] [Phloxine B] | ~550 nm | variable staining of the proteinaceous connective tissue and cellular cytoplasm, granules or vesicles | localization of drug-dye [2]: appeared to localize to cell cytoplasm in addition to the connective tissue fibers; source of the resultant fluorescence emission signal of the mixture ([1]; 488 nm excitation): nearly all the fluorescence emission signal from Phloxine B
6 | Nc1ccc2cc3ccc(N)cc3nc2c1 [Proflavine] | ~508 nm | staining like those typical of a fluorescent DNA dye | structure outlined by the stain [3]: nucleus
7 | O=C([O-])c1c(Cl)c(Cl)c(Cl)c(Cl)c1-c1c2cc(I)c(=O)c(I)c-2oc2c(I)c([O-])c(I)cc12.[Na+].[Na+] [Rose Bengal] | ~565 nm | variable staining of the proteinaceous connective tissue and cellular cytoplasm, granules or vesicles | structure outlined by the stain [3]: proteins; localization of drug-dye [2]: appeared to localize to cell cytoplasm in addition to the connective tissue fibers
